Measured values taken from patent US8686043B2, “Heterocyclic sulfonamides, uses and pharmaceutical compositions thereof” (Pfizer Inc., priority 2009, dated 2014).

Each compound was assayed on AMPA receptors (assay: AMPA ES Cell FLIPR Screen (AMPA Potentiator Assay)). Conditions: ES cell-derived neurons, FLIPR (Fluo-4), 32 μM AMPA challenge; values marked * are the geometric mean of 2-5 EC50 determinations.
Type: cell-based, murine
From the text: Growth and Maintenance of ES Cells
Murine ES cell line E14, with a targeted mutation in the Sox1 gene and a neuroectodermal marker that offers G418 resistance when the Sox1 gene is expressed (Stem Cell Sciences, West Mains Road, Edinburgh, Scotland EH9 3JQ) may be used in all experiments. ES cells may be maintained undifferentiated as previously described (Methods For The Isolation And Maintenance Of Murine Embryonic Stem Cells; Roach-M-L, McNeish-J-D., Methods in Molecular Biology, 185, 1-16 (2002)). Briefly, ES cells may be grown in stem cell culture media comprising a base medium of Knockout™ D-MEM (Invitrogen 5791 Van Allen Way, Carlsbad, Calif. USA 92008), supplemented with 15% ES qualified Fetal Bovine Serum (FBS) (Invitrogen), 0.2 mM L-Glutamine (Invitrogen), 0.1 mM MEM non-essential amino acids (Invitrogen), 30 μg/ml Gentamicin […] (Invitrogen), 1000 U/ml ESGRO™ (CHEMICON International, Inc., 28820 Single Oak Drive, Temecula, Calif. 92590) and 0.1 mM 2-mercaptoethanol (Sigma, 3050 Spruce St., St. Louis, Mo. 63103). ES cells may then be plated on gelatin-coated dishes (BD Biosciences, 2350 Qume Drive, San Jose, Calif. 95131), wherein the media is changed daily and the cells dissociated with 0.05% Trypsin EDTA (Invitrogen) every other day.
Neural In Vitro Differentiation of ES Cells
Embryoid Body Formation: Prior to embryoid body (EB) formation the ES cells may be weaned from FBS onto Knockout Serum Replacement™ (KSR) (Invitrogen). To form EBs, ES cells may be dissociated into a single cell suspension, then 3×10^6 cells plated in bacteriology dishes (Nunc 4014) and grown as a suspension culture in NeuroEB-I medium that consisted of Knockout™ D-MEM (Invitrogen), supplemented with 10% KSR (Invitrogen), 0.2 mM L-Glutamine (Invitrogen), 0.1 mM MEM non-essential amino acids (Invitrogen), 30 μg/ml Gentamicin (Invitrogen), 1000 U/ml ESGRO™ (CHEMICON International, Inc.), 0.1 mM 2-mercaptoethanol (Sigma) and 150 ng/ml Transferrin (Invitrogen). The plates may then be put on a Stovall Belly Button™ shaker in an atmospheric oxygen incubator. The media may be changed on day 2 of EB formation with NeuroEB-I and on day 4 with NeuroEB-II (NeuroEB-I plus 1 μg/ml mNoggin (R&D Systems, 614 McKinley Place N.E. Minneapolis, Minn. 55413)
Neuronal Precursor Selection and Expansion: On day 5 of EB formation, EBs may be dissociated with 0.05% Trypsin EDTA, and 4×10^6 cells/100 mm dish may then be plated on Laminin coated tissue culture dishes in NeuroEB-II-G418 medium that consisted of a base medium of a 1:1 mixture of D-MEM/F12 supplemented with N2 supplements and NeuroBasal Medium supplemented with B27(I ASSUME THIS IS THE VITAMIN) supplement and 0.1 mM L-Glutamine (all from Invitrogen). The base medium may then be supplemented with 10 ng/ml bFGF (Invitrogen), 1 μg/ml mNoggin, 500 ng/ml SHH-N (IS THIS SONIC HEDGEHOG FROM ProSpecBio Rehovot Science Park, P.O. BOX 398, Rehovot 76103, Israel), 100 ng/ml FGF-8b (R&D Systems), 1 μg/ml Laminin and 200 μg/ml G418 (Invitrogen) for selection of neuronal precursors expressing Sox-1. The plates may then be put in an incubator containing 2% oxygen and maintained in these conditions. During the 6-day selection period, the NeuroEB-II ([…]) media should be changed daily. On day 6, the surviving neuronal precursor foci may then be dissociated with 0.05% Trypsin EDTA and the cells plated at a density of 1.5×10^6 cells/100 mm Laminin coated dish in Neuroll ([…])-G418 medium. The cells may then be dissociated every other day for expansion, and prepared for cryopreservation at passage 3 or 4. The cryopreservation medium typically contains 50% KSR, 10% dimethyl sulfoxide (DMSO) (Sigma) and 40% Neurol([…])-G418 medium. Neuronal precursors may be cryopreserved at a concentration of 4×10^6 cells/ml and 1 ml/cryovial in a controlled rate freezer overnight then transferred to an ultra-low freezer or liquid nitrogen for long-term storage. […]
`CC(C)S(=O)(=O)N[C@H]1CCC[C@H]1Oc1ccc(-c2ccccc2C#N)cc1` [Example 5, N-{(1S,2R)-2-[(2′-cyanobiphenyl-4-yl)oxy]cyclopentyl}propane-2-sulfonamide] showed an EC50 of 535 nM.
With `CC(C)S(=O)(=O)N[C@H]1CCC[C@H]1Oc1ccc(-c2ccc(C#N)s2)cc1` [Example 6, N-{(1S,2R)-2-[4-(5-cyano-2-thienyl)phenoxy]cyclopentyl}propane-2-sulfonamide] the EC50 was 1540 nM.
Work on `CC(C)S(=O)(=O)N[C@H]1CCCC[C@H]1Oc1ccc(-c2ccccc2C#N)cc1` [Example 7, N-{(1S,2R)-2-[(2′-cyanobiphenyl-4-yl)oxy]cyclohexyl}propane-2-sulfonamide] yielded an EC50 of 157 nM.
For `CC(C)S(=O)(=O)N[C@H]1COC[C@H]1Oc1ccc(-c2ccc(O)cc2)cc1` [Example 18, N-{(3S,4S)-4-[(4′-hydroxybiphenyl-4-yl)oxy]tetra hydrofuran-3-yl}propane-2-sulfonamide], the EC50 was 1180 nM.
In the case of `CCOc1cc(F)ccc1-c1ccc(O[C@@H]2COC[C@@H]2NS(=O)(=O)C(C)C)cc1` [Example 19, N-{(3S,4S)-4-[(2′-ethoxy-4′-fluorobiphenyl-4-yl)oxy]tetra hydrofuran-3-yl}propane-2-sulfonamide], the EC50 is reported as 248 nM.
`Cc1cc(F)ccc1-c1ccc(O[C@@H]2COC[C@@H]2NS(=O)(=O)C(C)C)cc1` [Example 20, N-{(3S,4S)-4-[(4′-fluoro-2′-methylbiphenyl-4-yl)oxy]tetra hydrofuran-3-yl}propane-2-sulfonamide] showed an EC50 of 729 nM.
With `CC(C)S(=O)(=O)N[C@H]1COC[C@H]1Oc1ccc(-c2ccc(F)cc2F)cc1` [Example 21, N-{(3S,4S)-4-[(2′,4′-difluorobiphenyl-4-yl)oxy]tetra hydrofuran-3-yl}propane-2-sulfonamide] the EC50 was 239 nM.
`CC(C)S(=O)(=O)N[C@H]1COC[C@H]1Oc1ccc(-c2cncnc2)cc1` [Example 22, N-[(3S,4S)-4-(4-pyrimidin-5-ylphenoxy)tetrahydrofuran-3-yl]propane-2-sulfonamide] gave an EC50 of 861 nM.
With `CCOc1ccccc1-c1ccc(O[C@@H]2CCC[C@@H]2NS(=O)(=O)C(C)C)cc1` [Example 25, N-{(1S,2R)-2-[(2′-ethoxybiphenyl-4-yl)oxy]cyclopentyl} propane-2-sulfonamide] the EC50 was 2960 nM.
`CC(C)S(=O)(=O)N[C@H]1CCC[C@H]1Oc1ccc(-c2ccccc2)cc1` [Example 26, N-[(1S,2R)-2-(biphenyl-4-yloxy)cyclopentyl] propane-2-sulfonamide] showed an EC50 of 1120 nM.
Compound `CC(C)S(=O)(=O)N[C@H]1CCC[C@H]1Oc1ccc(N2CCCC2)cc1` [Example 27, N-[(1S,2R)-2-(4-pyrrolidin-1-ylphenoxy)cyclopentyl] propane-2-sulfonamide] has an EC50 of 857 nM.
Compound `CC(C)S(=O)(=O)N[C@H]1CCC[C@H]1Oc1ccc(-c2ccc(C(=O)O)cc2C#N)cc1` [Example 28, 2-cyano-4′-({(1R,2S)-2-[(isopropylsulfonyl)amino]cyclopentyl}oxy) biphenyl-4-carboxylic acid] has an EC50 of 651 nM.
Work on `CC(C)S(=O)(=O)N[C@H]1CCC[C@H]1Oc1ccc(-c2ccccc2)c(F)c1` [Example 29, N-{(1S,2R)-2-[(2-fluorobiphenyl-4-yl)oxy]cyclopentyl} propane-2-sulfonamide] yielded an EC50 of 521 nM.
With `CC(C)S(=O)(=O)N[C@H]1CCC[C@H]1Oc1ccc(-c2ccc(F)cc2C#N)c(F)c1` [Example 30, N-{(1S,2R)-2-[(2′-cyano-2,4′-difluorobiphenyl-4-yl)oxy]cyclopentyl}propane-2-sulfonamide] the EC50 was 349 nM.
`CCOc1ccccc1-c1ccc(O[C@@H]2CCC[C@@H]2NS(=O)(=O)C(C)C)cc1F` [Example 31, N-{(1S,2R)-2-[(2′-ethoxy-2-fluorobiphenyl-4-yl)oxy]cyclopentyl} propane-2-sulfonamide] gave an EC50 of 327 nM.
For `CC(C)S(=O)(=O)N[C@H]1CCC[C@H]1Oc1ccc(-c2ccc(C#N)s2)c(F)c1` [Example 32, N-{(1S,2R)-2-[4-(5-cyano-2-thienyl)-3-fluorophenoxy]cyclopentyl} propane-2-sulfonamide], the EC50 was 1400 nM.
In the case of `CC(C)S(=O)(=O)N[C@H]1CCC[C@H]1Oc1ccc(-c2cccc(C(=O)NC3CC3)c2)c(F)c1` [Example 33, N-cyclopropyl-2′-fluoro-4′-({(1R,2S)-2-[(isopropylsulfonyl)amino]cyclopentyl}oxy) biphenyl-3-carboxamide], the EC50 is reported as 623 nM.
`CC(C)S(=O)(=O)N[C@H]1CCC[C@H]1Oc1ccc(-c2ccc(CCNS(C)(=O)=O)cc2)c(F)c1` [Example 34, N-{(1S,2R)-2-[(2-fluoro-4′-{2-[(methylsulfonyl)amino]ethyl}biphenyl-4-yl)oxy]cyclopentyl} propane-2-sulfonamide] was tested, and the EC50 was 3220 nM.
`CC(C)S(=O)(=O)N[C@H]1CCCC[C@H]1Oc1ccc(-c2ccccc2C#N)c(F)c1` [Example 35, N-{(1S,2R)-2-[(2′-cyano-2-fluorobiphenyl-4-yl)oxy]cyclohexyl} propane-2-sulfonamide] showed an EC50 of 525 nM.
Work on `CC(C)S(=O)(=O)N[C@H]1CCCC[C@H]1Oc1ccc(-c2ccc(F)cc2C#N)c(F)c1` [Example 36, N-{(1S,2R)-2-[(2′-cyano-2,4′-difluorobiphenyl-4-yl)oxy]cyclohexyl} propane-2-sulfonamide] yielded an EC50 of 1610 nM.
`CC(C)S(=O)(=O)N[C@H]1CCCC[C@H]1Oc1ccc(-c2ccc(C#N)s2)c(F)c1` [Example 37, N-{(1S,2R)-2-[4-(5-cyano-2-thienyl)-3-fluorophenoxy]cyclohexyl} propane-2-sulfonamide] was tested, and the EC50 was 1720 nM.
In the case of `CC(C)S(=O)(=O)N[C@H]1CCCC[C@H]1Oc1ccc(N2CCCC2)cc1` [Example 38, N-[(1S,2R)-2-(4-pyrrolidin-1-ylphenoxy)cyclohexyl] propane-2-sulfonamide], the EC50 is reported as 327 nM.
With `CCOc1ccccc1-c1ccc(O[C@@H]2CCCC[C@@H]2NS(=O)(=O)C(C)C)cc1` [Example 39, N-{(1S,2R)-2-[(2′-ethoxybiphenyl-4-yl)oxy]cyclohexyl} propane-2-sulfonamide] the EC50 was 1420 nM.
In the case of `CC(C)S(=O)(=O)N[C@H]1CCCC[C@H]1Oc1ccc(-c2ccccc2OCC(F)(F)F)nc1` [Example 40, N-[(1S,2R)-2-({6-[2-(2,2,2-trifluoroethoxy)phenyl]pyridin-3-yl}oxy)cyclohexyl] propane-2-sulfonamide], the EC50 is reported as 148 nM.
Work on `CC(C)S(=O)(=O)N[C@H]1CCCC[C@H]1Oc1ccc(-c2ccccc2OC(F)(F)F)nc1` [Example 41, N-[(1S,2R)-2-({6-[2-(trifluoromethoxy)phenyl]pyridin-3-yl}oxy)cyclohexyl] propane-2-sulfonamide] yielded an EC50 of 331 nM.
Compound `CC(C)S(=O)(=O)N[C@H]1CCCC[C@H]1Oc1ccc(-c2ccc(C#N)s2)nc1` [Example 42, N-[(1S,2R)-2-{[6-(5-cyano-2-thienylpyridin)-3-yl]oxy}cyclohexyl] propane-2-sulfonamide] has an EC50 of 2780 nM.
Compound `CC(C)S(=O)(=O)N[C@H]1CCCC[C@H]1Oc1ccc(N2CCCCC2)cc1` [Example 54, N-[(1S,2R)-2-(4-piperidin-1-ylphenoxy)cyclohexyl]pro-pane-2-sulfonamide] has an EC50 of 503 nM.

Same assay, conditions: title compound versus its enantiomer
With `CC(C)S(=O)(=O)N[C@H]1CCCC[C@H]1Oc1ccc(-c2ccccc2C#N)cc1` [Example 7, N-{(1S,2R)-2-[(2′-cyanobiphenyl-4-yl)oxy]cyclohexyl}propane-2-sulfonamide] the “biological activity improved over that of its enantiomer” value was > 150 times.

Same assay, conditions: title compound versus its enantiomer prepared from the (1R,2S) bromide
In the case of `CC(C)S(=O)(=O)N[C@H]1CCC[C@H]1Oc1ccc(-c2ccccc2C#N)cc1` [Example 5, N-{(1S,2R)-2-[(2′-cyanobiphenyl-4-yl)oxy]cyclopentyl}propane-2-sulfonamide], the “potency compared with its enantiomer” value is reported as “significantly more potent than its enantiomer”.
